How the values were obtained:
[1] = molecular target: T1, human α2-GABAA receptor (BZD site, membrane protein of HEK293 cells) (Homo sapiens, UniProt P18507+P47869); assay: Radioligand competitive binding assay (3H-flunitrazepam) at the BZD site of the α2-GABAA receptor; settings: competition with 1 nM 3H-flunitrazepam; Ki calculated from IC50; read-out: α2 Ki
T1 construct: expressed in transfected cells
Text: (§1) α subunit, β subunit, and γ subunit are essential for the formation of a complete and functional GABAA receptor. In this example of the present disclosure, HEK293 cells stably expressing the human α1-GABAA receptor (α1-GABAAR) and α2-GABAA receptor (α2-GABAAR) were constructed and separately selected using the lipofection method (Felgner, P. L., et al. Proceedings of the National Academy of Sciences, 1987, 84: 7413-7417). The α1-GABAAR-HEK293 cell model simultaneously expressed the α1 subunit (for protein sequence, see GenBank accession No.: NM_000806.5), the […] (for protein sequence, see GenBank accession No.: NM_000814.5), and the […] (for protein sequence, see GenBank accession No.: NM_000816.3). The α2-GABAAR-HEK293 cell model simultaneously expressed the α2 subunit (for protein sequence, see GenBank accession No.: NM_000807.4), the β3 subunit (for protein sequence, see GenBank accession No.: NM_000814.5), and the γ2 subunit (for protein sequence, see GenBank accession No.: NM_000816.3).
(§2) The above cell lines were subcultured. The α2-GABAAR-HEK293 cells were expanded for testing the affinity of compounds to the benzodiazepine (BZD) site of the GABAA receptor. During the passage process, some of the α1-GABAAR-HEK293 cells and α2-GABAAR-HEK293 cells were suspended and plated on a slide pre-treated with Poly-D-Lysine for electrophysiological testing (method referenced from patent CN107344936A, paragraph 0586).
The affinity of the compounds for the α2-GABAA receptor was determined by competing for the binding of ^3H-flunitrazepam (isotope ^3H-labelled flunitrazepam) to the BZD site on the membrane protein of HEK293 cells stably expressing the human α2-GABAAR.
Membrane preparation: Cells were suspended in 50 mM Tris-HCl buffer (pH=7.4), homogenized 10 times for 20 seconds with a homogenizer on ice, and centrifuged at 1000 g for 10 minutes at 4° C. The supernatant was taken, and the above steps were repeated. The supernatant was centrifuged at 4° C. (33800 g; Thermo, rotor: A27-8×50) for 60 minutes. The precipitate was resuspended in Tris buffer (50 mM Tris-HCl, 10 mM MgCl2, 0.5 mM EDTA, and 10% glycerol). The protein content was determined (BCA (bicinchoninic acid) protein quantification assay based on copper ion reduction, with a BCA kit purchased from Pierce (Annoron (Beijing) Biotechnology Co., Ltd.)), and 1 mL aliquots were prepared and stored at −80° C.
Radioligand competitive binding assay: This assay was performed in a 200 μL system (96-well plate) containing 100 μL of cell membrane. The concentration of ^3H-flunitrazepam was 1 nM, and the concentrations of the test compounds were in the range of […]. Flumazenil was used as a control. 1 μL of 2 mM flumazenil (final […]) was added to each low signal control (low control, LC) well, and 1 μL of dimethyl sulfoxide was added to each high signal control (high control, HC) well. The final concentration of target membrane protein was […]. All sample stock solutions of test compounds were 10 mM dimethyl sulfoxide solutions. All the samples were diluted to a concentration of 0.2 mM with dimethyl sulfoxide, and then subjected to a 4-fold serial dilution for a total of 8 working concentration gradients. The 96-well plate was sealed with a sealing membrane and then incubated on a shaker at room temperature for 1 hour. Meanwhile, a GF/C filter plate was soaked in plate soaking buffer (0.3% PEI (polyethyleneimine, purchased from Sigma-Aldrich, model: P314), stored at 4° C.) for at least 0.5 hours. After the binding incubation was completed, the cells were harvested onto the GF/C filter plate using a cell harvester and washed four times with plate washing buffer (50 mM Tris-HCl, pH 7.4, stored at 4° C.). After drying in an oven at 50° C. for 1 hour, the dried GF/C filter plate was bottom-sealed. The residual radioactivity on the filter membrane was detected by liquid scintillation counting.

[2] = molecular target: T2, human α2-GABAA receptor (α2-GABAAR-HEK293 cells) (Homo sapiens, UniProt P18507+P47869); assay: Whole-cell patch-clamp electrophysiology, positive allosteric modulatory activity on α2-GABAA receptor; format: cell-based; settings: read-out: α2-GABAA positive allosteric modulatory activity
T2 construct: expressed in transfected cells
Text: as §1, §2
(§3) The positive regulatory activity of the test drugs on the α1-GABAA receptor and the α2-GABAA receptor was detected by the electrophysiological method. The specific method was as follows:
(§4) Compound concentration setting: The final concentration of the compounds used for screening was 100 nM. For cell lines expressing the α1-GABAA receptor, the concentration of GABA was 0.05 to 0.07 μM (approximately EC2-4). For cell lines expressing the α2-GABAA receptor, the concentration of GABA was 0.10 to 0.11 μM (approximately EC7-8). Electrophysiological testing was performed using the whole-cell patch-clamp technique, which can refer to the method reported in the literature (Nickolls, S. A., et al. British Journal of Pharmacology, 2018, 175: 708-725). The composition of the extracellular solution (ECS) for electrophysiology was as follows: 150 mM NaCl, 5 mM KCl, 2.5 mM CaCl2, 1 mM MgCl2, 10 mM HEPES, and 10 mM glucose (pH 7.4). The formulation of the intracellular solution (ICS) for electrophysiology was as follows: 140 mM CsCl, 11 mM EGTA, 10 mM HEPES, 2 mM CaCl2, 1 mM MgCl2, 4 mM MgATP, and 2 mM TEA (pH 7.3). GABA (γ-aminobutyric acid) powder was prepared into a mother liquor with pure water, which was then diluted in ECS. The compound was first prepared into a 4 mM mother liquor with dimethyl sulfoxide, which was then gradually diluted in the corresponding concentration of GABA-ECS. The solutions were freshly prepared prior to electrophysiological testing.
(§5) Electrophysiological signal acquisition was performed using an EPC 10 amplifier and PatchMaster software (HEKA) or an Axon 700B amplifier and Clampex software (AXON). The recording electrode was made through a drawing process using borosilicate glass, with an electrode resistance of 4 to 6 MΩ. Extracellular administration was performed using the ALA-VC-8PG™ system. A single, independently growing cell was selected. After the glass electrode formed a good seal with the cell, the membrane was ruptured to form the whole-cell configuration. The cell membrane potential was clamped at −60 mV and recorded in Gap-free mode. During the test, the extracellular solution was first applied extracellularly for approximately 20 seconds. After the baseline (Iprebaseline) stabilized, the extracellular solution was switched to GABA-ECS. At this point, the current induced by GABA (Igaba) could be detected. After approximately 10 to 20 seconds, when the current stabilized, the extracellular solution was switched to a mixture of the compound and GABA-ECS. […]

[3] = molecular target: T3, human α1-GABAA receptor (α1-GABAAR-HEK293 cells) (Homo sapiens, UniProt P14867+P18507); assay: Whole-cell patch-clamp electrophysiology, positive allosteric modulatory activity on α1-GABAA receptor; format: cell-based; settings: read-out: α1-GABAA positive allosteric modulatory activity
T3 construct: expressed in transfected cells
Text: as §1, §2, §3, §4, §5

Compound | Ki [1] [nM] | activation at 0.1 µM [2] [%] | activation at 0.1 µM [3] [%]
COc1cc2c(cc1-c1cc(-c3cnnc4c3ncn4C(C)C)ccc1F)oc(=O)n2C [Example 35, 6-(2-Fluoro-5-(7-isopropyl-7H-imidazo[4,5-c]pyridazin-4-yl)phenyl)-5-methoxy-3-methylbenzo[d]oxazol-2(3H)-one] | 7.73 | 134 | 80
COc1cc2nn(C)cc2cc1-c1cc(-c2cnnc3c2ncn3C(C)C)ccc1F [Example 49, 4-(4-Fluoro-3-(6-methoxy-2-methyl-2H-indazol-5-yl)phenyl)-7-isopropyl-7H-imidazo[4,5-c]pyridazine] | 9.16 | 94 | 58
CCn1cnc2c(-c3ccc(F)c(-c4cc5oc(=O)n(C6CC6)c5cc4OC)c3)cnnc21 [Example 51, 3-Cyclopropyl-6-(5-(7-ethyl-7H-imidazo[4,5-c]pyridazin-4-yl)-2-fluorophenyl)-5-methoxybenzo[d]oxazol-2(3H)-one] | 3.44 | 90 | 14
CCn1cnc2c(-c3ccc(F)c(-c4cc5sc(=O)n(C)c5cc4OC)c3)cnnc21 [Example 53, 6-(5-(7-Ethyl-7H-imidazo[4,5-c]pyridazin-4-yl)-2-fluorophenyl)-5-methoxy-3-methylbenzo[d]thiazol-2(3H)-one] | 3.78 | 94 | 21
CCn1cnc2c(-c3ccc(F)c(-c4cc5ccc(=O)n(C)c5cc4OC)c3)cnnc21 [Example 55, 6-(5-(7-Ethyl-7H-imidazo[4,5-c]pyridazin-4-yl)-2-fluorophenyl)-7-methoxy-1-methylquinolin-2(1H)-one] | 2.43 | 81 | 21
CCn1cnc2c(-c3ccc(F)c(-c4ccc5c(nnn5C5CC5)c4OC)c3)cnnc21 [Example 70, 4-(3-(1-Cyclopropyl-4-methoxy-1H-benzo[d][1,2,3]triazol-5-yl)-4-fluorophenyl)-7-ethyl-7H-imidazo[4,5-c]pyridazine] | 0.5 | 90 | -27
CCn1cnc2c(-c3ccc(F)c(-c4cc5cn(C6CCN(C)CC6(F)F)nc5cc4OC)c3)cnnc21 (stereo not drawn) [Example 74, 4-(3-(2-(3,3-Difluoro-1-methylpiperidin-4-yl)-6-methoxy-2H-indazol-5-yl)-4-fluorophenyl)-7-ethyl-7H-imidazo[4,5-c]pyridazine] | 6.99 | 104 | 9
CCn1cnc2c(-c3ccc(F)c(-c4cc5cn(C6CCN(C)CC6F)nc5cc4OC)c3)cnnc21 (stereo not drawn) [Example 76, 7-Ethyl-4-(4-fluoro-3-(2-(3-fluoro-1-methylpiperidin-4-yl)-6-methoxy-2H-indazol-5-yl)phenyl)-7H-[4,5-c]pyridazine] | 2.43 | 107 | 61
CCn1cnc2c(-c3ccc(F)c(-c4cc5cn(C6CCN(C7COC7)CC6)nc5cc4OC)c3)cnnc21 [Example 77, 7-Ethyl-4-(4-fluoro-3-(6-methoxy-2-(1-(oxetan-3-yl)piperidin-4-yl)-2H-indazol-5-yl)phenyl)-7H-imidazo[4,5-c]pyridazine] | 1.13 | 104 | 66
CCn1cnc2c(-c3ccc(F)c(-c4cc5cn(-c6nccn6C)nc5cc4OC)c3)cnnc21 [Example 78, 7-Ethyl-4-(4-fluoro-3-(6-methoxy-2-(1-methyl-1H-imidazol-2-yl)-2H-indazol-5-yl)phenyl)-7H-imidazo[4,5-c]pyridazine] | 3.91 | 110 | 10
CCn1cnc2c(-c3ccc(F)c(-c4ccc5c(nnn5C)c4OC)c3)cnnc21 [Example 81, 7-Ethyl-4-(4-fluoro-3-(4-methoxy-1-methyl-1H-benzo[d][1,2,3]triazol-5-yl)phenyl)-7H-imidazo[4,5-c]pyridazine] | 2.34 | 83 | -25

Reference: US20260159519A1, “IMIDAZOPYRIDAZINE SUBSTITUTED BENZENE RING DERIVATIVE, PREPARATION METHOD, PHARMACEUTICAL COMPOSITION AND USE” (SHANGHAI SIMR BIOTECHNOLOGY CO., LTD., priority 2022, published 2026)
